Data published in US6866857B1, “Oxalipatinum preparation packaging” (Debiopharm S.A., priority 1998, dated 2005).
“Also recorded” adds a separate entry of the source.

Experiments:
[1] = accelerated stability study of liquid oxaliplatinum solution packed in flexible bag; type: physicochemical; settings: for Appearance of the solution / pH / Impurities by HPLC (%) / L-OHP titre/standard (%) / Oxalic acid titre (%): 2 mg/ml solution, 40° C.
[2] = tolerance of aqueous oxaliplatinum preparations to contact with PVC-based materials; type: physicochemical; settings: pharmaceutical preparations in aqueous solution
[3] = 6 Months, HPLC, PA 11/PP bag, 75% RH
[4] = 12 Months, PA 11/PP bag, 75% RH
[5] = 12 Months, HPLC, PA 11/PP bag, 75% RH
[6] = Week 0, HPLC, PA 11/PP bag, 75% RH
[7] = Week 1, HPLC, PA 11/PP bag, 75% RH
[8] = Week 2, HPLC, PA 11/PP bag, 75% RH
[9] = Week 3, HPLC, PA 11/PP bag, 75% RH
[10] = Week 4, HPLC, PA 11/PP bag, 75% RH
[11] = Week 5, HPLC, PA 11/PP bag, 75% RH
[12] = Week 12, HPLC, PA 11/PP bag, 75% RH

O=C1[O][Pt]2([NH][C@@H]3CCCC[C@H]3[NH]2)[O]C1=O (relative stereo) [oxaliplatinum, cis-oxalato(trans-1-1-diaminocyclohexane) platinum(II)]
Appearance of the solution ([1]; 6 Months, PA 11/PP bag, 75% RH): Clear,
pH ([1]; 6 Months, PA 11/PP bag, 75% RH): 5.20
Impurities by HPLC (%) [1, 3]: 0.5%
L-OHP titre/standard (%) [1, 3]: 98.9%
Oxalic acid titre (%) [1, 3]: <0.1%
Appearance of the solution [1, 4]: Clear,
pH [1, 4]: 5.30
Impurities by HPLC (%) [1, 5]: 0.6%
L-OHP titre/standard (%) [1, 5]: 98.5%
Oxalic acid titre (%) [1, 5]: <0.1%
maximum percentage of apparent impurities ([1]; HPLC): ≤ 2%
Appearance of the solution ([1]; Week 0, 100 ml PA 11/PP bag, 75% relative humidity): Clear,
pH ([1]; Week 0, PA 11/PP bag, 75% RH): 5.56
Impurities by HPLC (%) [1, 6]: 0.10%
L-OHP titre/standard (%) [1, 6]: 99.7%
Oxalic acid titre (%) [1, 6]: <0.1%
Appearance of the solution ([1]; Week 1, PA 11/PP bag, 75% RH): Clear,
pH ([1]; Week 1, PA 11/PP bag, 75% RH): 5.10
Impurities by HPLC (%) [1, 7]: 0.60%
L-OHP titre/standard (%) [1, 7]: 100.1%
Oxalic acid titre (%) [1, 7]: <0.1%
Appearance of the solution ([1]; Week 2, PA 11/PP bag, 75% RH): Clear,
pH ([1]; Week 2, PA 11/PP bag, 75% RH): 5.24
Impurities by HPLC (%) [1, 8]: 0.50%
L-OHP titre/standard (%) [1, 8]: 100.0%
Oxalic acid titre (%) [1, 8]: <0.1%
Appearance of the solution ([1]; Week 3, PA 11/PP bag, 75% RH): Clear,
pH ([1]; Week 3, PA 11/PP bag, 75% RH): 5.22
Impurities by HPLC (%) [1, 9]: 0.50%
L-OHP titre/standard (%) [1, 9]: 100.9%
Oxalic acid titre (%) [1, 9]: <0.1%
Appearance of the solution ([1]; Week 4, PA 11/PP bag, 75% RH): Clear,
Impurities by HPLC (%) [1, 10]: 0.48%
L-OHP titre/standard (%) [1, 10]: 99.3%
Oxalic acid titre (%) [1, 10]: <0.1%
Appearance of the solution ([1]; Week 5, PA 11/PP bag, 75% RH): Clear,
pH ([1]; Week 5, PA 11/PP bag, 75% RH): 5.23
Impurities by HPLC (%) [1, 11]: 0.45%
L-OHP titre/standard (%) [1, 11]: 97.7%
Oxalic acid titre (%) [1, 11]: <0.1%
Appearance of the solution ([1]; Week 12, PA 11/PP bag, 75% RH): Clear,
pH ([1]; Week 12, PA 11/PP bag, 75% RH): 5.35
Impurities by HPLC (%) [1, 12]: 0.40%
L-OHP titre/standard (%) [1, 12]: 99.3%
Oxalic acid titre (%) [1, 12]: <0.1%
period of stability of the liquid solution packed in a flexible bag ([1]; liquid solution in flexible bag): stable for a period extending to more than three months, and even to more than six months; also recorded: stable for at least one year
appearance of the solution over the whole period ([1]; observed for twelve months, flexible bag): clarity and the absence of coloration
stability compared with solution packed in a glass bottle ([1]; same conditions, FIG. 6 vs FIG. 7): stability analogous
tolerance of contact with PVC-based materials [2]: cannot tolerate being in contact with PVC-based materials
